Test systems include 786-0 renal; OVCAR-4 ovarian; SNB-19 CNS; HT29 colon; TK-10 renal; NCI-H23 lung; UACC-62 melanoma; MDA-MB-435; CCRF-CEM leukemia; SNB-75 CNS.
Experiment in all cases: NCI anticancer screen, dose series, 48 h

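How tested: cells in 96-well plates exposed to compound for 48 hours at five concentrations. Here, GI50 denotes the concentration required for 50% inhibition of growth. TGI: concentration producing complete growth inhibition.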

In the case of `Cc1ccc(OCC2OC(n3cnc4c(Cl)nc(N)nc43)CC2Oc2ccc(C)cc2)cc1` (stereo unspecified), the TGI in the assay on 786-0 renal is greater than 100 µM; with OVCAR-4 ovarian it was 61.3 µM; in the assay with SNB-19 CNS, greater than 100 µM; in the assay on HT29 colon, greater than 100 µM; in the assay on TK-10 renal, greater than 100 µM; with NCI-H23 lung, 49.7 µM. Besides, the TGI in the assay on UACC-62 melanoma, in the assay on MDA-MB-435, in the assay on CCRF-CEM leukemia and in the assay with SNB-75 CNS was greater than 100 µM throughout.
With `COc1ccc2c3c1OC1C(=O)C=CC4(CC2)N(C)CCC314` (stereo unspecified), the TGI with 786-0 renal is 63.7 µM; with OVCAR-4 ovarian it was greater than 100 µM; in the assay on SNB-19 CNS, 76.9 µM; in the assay with HT29 colon, greater than 100 µM; in the assay with TK-10 renal, greater than 100 µM; with NCI-H23 lung it was greater than 100 µM. Further, the TGI with MDA-MB-435 was 61.2 µM; in the assay with CCRF-CEM leukemia, 51.5 µM; with SNB-75 CNS, greater than 100 µM.
On to `O=c1[nH]nc(-c2ccccc2)n1/N=C\c1ccccc1`, for which the TGI with 786-0 renal, in the assay with OVCAR-4 ovarian, with HT29 colon, in the assay with TK-10 renal, in the assay on NCI-H23 lung and in the assay with UACC-62 melanoma was greater than 100 µM in each case. Besides, the TGI in the assay on MDA-MB-435, in the assay on CCRF-CEM leukemia and with SNB-75 CNS was greater than 100 µM in each case.
As to `COc1cccc(CCN2CCN(CCCc3ccccc3)CC2)c1`, the TGI in the assay with 786-0 renal, in the assay on OVCAR-4 ovarian, in the assay on SNB-19 CNS, with HT29 colon, in the assay on TK-10 renal and with NCI-H23 lung was greater than 100 µM each time. Further, the TGI in the assay with UACC-62 melanoma, with MDA-MB-435, in the assay on CCRF-CEM leukemia and with SNB-75 CNS was greater than 100 µM each time.
Regarding `CCCC(=O)NC(Nc1ccc(S(=O)(=O)Nc2cc(C)on2)cc1)(C(=O)OCC)C(F)(F)F` (stereo unspecified), the TGI in the assay with 786-0 renal, in the assay with OVCAR-4 ovarian, in the assay on SNB-19 CNS, with HT29 colon, in the assay on TK-10 renal and with NCI-H23 lung was greater than 100 µM in each case. Moreover, the TGI with UACC-62 melanoma, with MDA-MB-435, in the assay on CCRF-CEM leukemia and with SNB-75 CNS was greater than 100 µM throughout.
Regarding `C[N+](C)(C)c1ccc(C(N)C(=O)O)cc1` (stereo unspecified), the TGI with 786-0 renal, in the assay with OVCAR-4 ovarian, in the assay on SNB-19 CNS, in the assay with HT29 colon, in the assay on TK-10 renal and with NCI-H23 lung was greater than 100 µM each time. Besides, the TGI in the assay on UACC-62 melanoma, in the assay on MDA-MB-435, in the assay on CCRF-CEM leukemia and in the assay on SNB-75 CNS was greater than 100 µM throughout.
Consider `CC(=O)NCCC1CN(C(=O)/C=C/I)c2ccccc21` (stereo unspecified), for which the TGI was 3.11 µM in the assay with 786-0 renal; 4.45 µM in the assay on OVCAR-4 ovarian; 27.9 µM with SNB-19 CNS; 12.9 µM in the assay with HT29 colon; 3.63 µM in the assay on TK-10 renal; 25.6 µM with NCI-H23 lung. Further, the TGI is 9.89 µM with UACC-62 melanoma, 18.5 µM with MDA-MB-435, greater than 38.6 µM in the assay on CCRF-CEM leukemia and 30.7 µM with SNB-75 CNS.
In the case of `Cc1ccc(S(=O)(=O)n2c3ccc(Br)cc3c3nc4ccccc4nc32)cc1`, the TGI with 786-0 renal, in the assay on OVCAR-4 ovarian, in the assay with SNB-19 CNS, with HT29 colon, with TK-10 renal and in the assay on NCI-H23 lung was greater than 100 µM throughout. The TGI in the assay with UACC-62 melanoma, in the assay on MDA-MB-435, in the assay with CCRF-CEM leukemia and with SNB-75 CNS was greater than 100 µM each time.
For the compound `NS(=O)(=O)c1ccc(/C=C/c2ccc(F)cc2)cc1`, the TGI was 41.2 µM with 786-0 renal; greater than 100 µM in the assay with OVCAR-4 ovarian; greater than 100 µM in the assay with SNB-19 CNS; greater than 100 µM in the assay on HT29 colon; greater than 100 µM in the assay on TK-10 renal; greater than 100 µM with NCI-H23 lung. The TGI in the assay with MDA-MB-435, in the assay on CCRF-CEM leukemia and in the assay on SNB-75 CNS was greater than 100 µM in each case. Moreover, the GI50 in the assay on OVCAR-4 ovarian was 34.4 µM; in the assay on HT29 colon, 29.4 µM; in the assay with NCI-H23 lung, 45.1 µM; in the assay with MDA-MB-435, 27 µM; in the assay on CCRF-CEM leukemia, 62 µM.
As for `CN(C)c1nc(N)nc(CS)n1`, the TGI in the assay with 786-0 renal, in the assay with OVCAR-4 ovarian, in the assay with SNB-19 CNS, with HT29 colon, in the assay with TK-10 renal and in the assay with NCI-H23 lung was greater than 100 µM throughout. In addition, the TGI in the assay with UACC-62 melanoma was greater than 100 µM; in the assay with MDA-MB-435, greater than 100 µM; with CCRF-CEM leukemia, 98.9 µM; in the assay with SNB-75 CNS, greater than 100 µM.
`Cc1ccc(OCC2OC(n3cnc4nc(N)nc(Cl)c43)CC2Oc2ccc(C)cc2)cc1` (stereo unspecified): the TGI is greater than 100 µM in the assay on 786-0 renal; greater than 100 µM in the assay on OVCAR-4 ovarian; 30.4 µM with SNB-19 CNS; 71.1 µM in the assay with HT29 colon; greater than 100 µM in the assay on TK-10 renal; 36.9 µM in the assay with NCI-H23 lung. Further, the TGI with UACC-62 melanoma is greater than 100 µM; in the assay on MDA-MB-435, greater than 100 µM; in the assay on CCRF-CEM leukemia it was greater than 100 µM; in the assay with SNB-75 CNS, 30.4 µM.
In the case of `CCOc1ccc(N/C(=C(/C(Cl)=C(/Cl)N(CC)CC)[N+](=O)[O-])n2nnc3ccccc32)cc1`, the TGI with 786-0 renal was 33.2 µM; in the assay on OVCAR-4 ovarian, 52.8 µM; with SNB-19 CNS, greater than 100 µM; in the assay on HT29 colon it was 63.8 µM; in the assay on NCI-H23 lung it was 35 µM; in the assay with UACC-62 melanoma, 28.8 µM. In addition, the TGI in the assay with MDA-MB-435 is 33.9 µM; with CCRF-CEM leukemia it was greater than 100 µM; in the assay with SNB-75 CNS, 51.2 µM.
Consider `CN(C)c1ccc(/C(F)=C(F)/C(F)=C(F)/C(F)=C(\F)c2ccc(Br)cc2)cc1`, for which the TGI is 22.2 µM in the assay with 786-0 renal; greater than 100 µM with OVCAR-4 ovarian; greater than 78.5 µM in the assay with SNB-19 CNS; 98 µM with HT29 colon; greater than 100 µM with TK-10 renal; 63.4 µM in the assay on NCI-H23 lung. The TGI with UACC-62 melanoma was greater than 100 µM; with MDA-MB-435, 10.7 µM; in the assay with CCRF-CEM leukemia, greater than 78.8 µM; in the assay with SNB-75 CNS, 92.9 µM.
In the case of `COC(=O)C1CCC(=S)N1C(=O)c1ccccc1` (stereo unspecified), the TGI with 786-0 renal, in the assay with OVCAR-4 ovarian, with SNB-19 CNS, with HT29 colon, in the assay with TK-10 renal and in the assay on NCI-H23 lung was greater than 100 µM in each case. Moreover, the TGI in the assay with UACC-62 melanoma, with MDA-MB-435, in the assay on CCRF-CEM leukemia and in the assay with SNB-75 CNS was greater than 100 µM in each case.

The values are drawn from PubChem BioAssay (NCI).
